Assay [1] deals with Casein kinase 1 epsilon (CSKN1E) (Homo sapiens, UniProt P49674). The assay is described as follows: Casein kinase assay, CK1 epsilon. The note with it: recombinant CSKN1E 30 nM, ATP 10 μM. The assay is classed as biochemical. The protocol:
(§1) The recombinant protein Casein kinase 1 delta (CSKN1D) was added to the substrate solution in a concentration of 5 nM and gently mixed. Dilution series in of compounds of the present invention in DMSO were added to the reaction mixture, followed after 20 min by addition of a mixture of ATP and ^33P-ATP (specific activity 0.01 μCi/μl final) to a final concentration of 10 μM. Reactions were carried out at 25° C. for 120 min, followed by spotting the reactions onto P81 ion exchange filter paper. Unbound phosphate was removed by washing of the filters in 0.75% phosphoric acid. […] IC50 values and curve fits were obtained using the program Prism® (Graph Pad Software).
The above assay was also used to determine the inhibitory capacity of the compounds of the present invention on Casein Kinase 1 epsilon, wherein instead of CSKN1D, recombinant protein Casein kinase 1 epsilon (CSKN1E) was added to the substrate solution in a concentration of 30 nM and gently mixed.

For assay [2], the target named is Casein kinase 1 delta (CSKN1D) (Homo sapiens, UniProt P48730). Kind of assay: Casein kinase assay, CK1 delta. The format is biochemical. The note with it: recombinant CSKN1D 5 nM, ATP 10 μM. How it is done:
as §1

The structures appear in SMILES notation.

Casein kinase 1 epsilon (CSKN1E), sequence (P49674 whole entry): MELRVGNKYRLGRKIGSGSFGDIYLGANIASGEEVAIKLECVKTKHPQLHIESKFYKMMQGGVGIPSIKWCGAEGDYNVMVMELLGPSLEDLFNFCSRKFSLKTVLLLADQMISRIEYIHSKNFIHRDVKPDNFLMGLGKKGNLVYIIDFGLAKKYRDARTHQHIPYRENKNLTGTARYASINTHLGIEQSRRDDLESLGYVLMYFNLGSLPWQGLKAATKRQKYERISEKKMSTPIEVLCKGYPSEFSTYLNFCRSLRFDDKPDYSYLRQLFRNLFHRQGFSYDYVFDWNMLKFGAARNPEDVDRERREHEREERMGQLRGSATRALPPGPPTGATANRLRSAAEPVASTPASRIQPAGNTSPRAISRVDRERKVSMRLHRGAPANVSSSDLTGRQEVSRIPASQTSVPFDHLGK
Casein kinase 1 delta (CSKN1D), sequence (P48730 whole entry): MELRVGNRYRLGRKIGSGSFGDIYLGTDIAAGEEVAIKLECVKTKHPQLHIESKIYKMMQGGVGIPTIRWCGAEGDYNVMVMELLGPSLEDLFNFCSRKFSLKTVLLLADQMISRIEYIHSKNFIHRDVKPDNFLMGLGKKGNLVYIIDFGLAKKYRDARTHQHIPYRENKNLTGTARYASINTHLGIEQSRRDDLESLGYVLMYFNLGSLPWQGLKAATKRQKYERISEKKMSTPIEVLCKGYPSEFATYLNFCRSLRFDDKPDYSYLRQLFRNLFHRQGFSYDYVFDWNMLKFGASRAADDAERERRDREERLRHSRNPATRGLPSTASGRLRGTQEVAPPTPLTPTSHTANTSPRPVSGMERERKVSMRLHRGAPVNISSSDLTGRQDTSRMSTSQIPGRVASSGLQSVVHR

The IC50 is the concentration needed to halve the response being measured. In the case of `O=C(Nc1nc2cc3c(cc2[nH]1)OC(F)(F)O3)c1csc(-c2ccccc2)n1` [Compound 4, N-(2,2-difluoro-5H-[1,3]dioxolo[4′,5′:4,5]benzo[1,2-d]imidazol-6-yl)-2-phenylthiazole-4-carboxamide], the IC50 in assay [1] and in assay [2] was 200 to 1000 nM throughout.

For the compound `O=C(Nc1nc2cc3c(cc2[nH]1)OC(F)(F)O3)c1csc(-c2ccc(C(F)(F)F)cc2)n1` [Compound 5, N-(2,2-difluoro-5H-[1,3]dioxolo[4′,5′:4,5]benzo[1,2-d]imidazol-6-yl)-2-(4-(trifluoromethyl)phenyl)thiazole-4-carboxamide], the IC50 in assay [1] and in assay [2] was over 1000 nM each time.

On to `O=C(Nc1nc2cc3c(cc2[nH]1)OC(F)(F)O3)c1csc(-c2cccc(Cl)c2Cl)n1` [Compound 6, 2-(2,3-dichlorophenyl)-N-(2,2-difluoro-5H-[1,3]dioxolo[4′,5′:4,5]benzo[1,2-d]imidazol-6-yl)thiazole-4-carboxamide], for which the IC50 in assay [1] and in assay [2] was over 1000 nM in each case.

As for `O=C(Nc1nc(C(=O)Nc2nc3cc4c(cc3[nH]2)OC(F)(F)O4)cs1)c1ccc(Cl)cc1` [Compound 8, 2-(4-chlorobenzamido)-N-(2,2-difluoro-5H-[1,3]dioxolo[4′,5′:4,5]benzo[1,2-d]imidazol-6-yl)thiazole-4-carboxamide], the IC50 in assay [1] and in assay [2] was 200 to 1000 nM throughout.

For the compound `O=C(Cc1cccc(Cl)c1)Nc1nc2cc3c(cc2[nH]1)OC(F)(F)O3` [Compound 8B, 2-(3-chlorophenyl)-N-(2,2-difluoro-5H-[1,3]dioxolo[4′,5′:4,5]benzo[1,2-d]imidazol-6-yl)acetamide], the IC50 in assay [1] and in assay [2] was under 200 nM in each case.

On to `O=C(/C=C/c1ccccc1)Nc1nc(C(=O)Nc2nc3cc4c(cc3[nH]2)OC(F)(F)O4)co1` [Compound 9, 2-cinnamamido-N-(2,2-difluoro-5H-[1,3]dioxolo[4′,5′:4,5]benzo[1,2-d]imidazol-6-yl)oxazole-4-carboxamide], for which the IC50 in assay [1] and in assay [2] was over 1000 nM throughout.

As to `O=C(Nc1nc2cc3c(cc2[nH]1)OC(F)(F)O3)c1coc(NC(=O)c2ccco2)n1` [Compound 10, N-(2,2-difluoro-5H-[1,3]dioxolo[4′,5′:4,5]benzo[1,2-d]imidazol-6-yl)-2-(furan-2-carboxamido)oxazole-4-carboxamide], the IC50 is over 1000 nM in assay [1] and 200 to 1000 nM in assay [2].

`O=C(Nc1nc2cc3c(cc2[nH]1)OC(F)(F)O3)c1csc(NC(=O)c2ccco2)n1` [Compound 11, N-(2,2-difluoro-5H-[1,3]dioxolo[4′,5′:4,5]benzo[1,2-d]imidazol-6-yl)-2-(furan-2-carboxamido)thiazole-4-carboxamide]: the IC50 in assay [1] and in assay [2] was under 200 nM in each case.

Take `COc1ccccc1C(=O)Nc1nc(C(=O)Nc2nc3cc4c(cc3[nH]2)OC(F)(F)O4)co1` [Compound 12, N-(2,2-difluoro-5H-[1,3]dioxolo[4′,5′:4,5]benzo[1,2-d]imidazol-6-yl)-2-(2-methoxybenzamido)oxazole-4-carboxamide]: the half-maximal inhibitory concentration (IC50) in assay [1] is over 1000 nM; in assay [2] it was 200 to 1000 nM.

Regarding `Cc1nn(-c2ccc(Cl)c(Cl)c2)c(C)c1C(=O)Nc1nc2cc3c(cc2[nH]1)OC(F)(F)O3` [Compound 14, 1-(3,4-dichlorophenyl)-N-(2,2-difluoro-5H-[1,3]dioxolo[4′,5′:4,5]benzo[1,2-d]imidazol-6-yl)-3,5-dimethyl-1H-pyrazole-4-carboxamide], the 50% inhibitory concentration (IC50) in assay [1] and in assay [2] was over 1000 nM each time.

In the case of `O=C(Nc1nc2cc3c(cc2[nH]1)OC(F)(F)O3)c1ccc(F)cc1` [Compound 119, N-(2,2-difluoro-5H-[1,3]dioxolo[4′,5′:4,5]benzo[1,2-d]imidazol-6-yl)-4-fluorobenzamide], the half-inhibitory concentration (IC50) in assay [2] lay in the range of 200 to 1000 nM.

Take `O=C(Nc1nc2cc3c(cc2[nH]1)OC(F)(F)O3)c1cccc(OC(F)(F)F)c1` [Compound 120, N-(2,2-difluoro-5H-[1,3]dioxolo[4′,5′:4,5]benzo[1,2-d]imidazol-6-yl)-3-(trifluoromethoxy)benzamide]: the IC50 in assay [2] is 200 to 1000 nM.

As to `O=C(Nc1nc2cc3c(cc2[nH]1)OC(F)(F)O3)c1cccc(OC(F)F)c1` [Compound 121, N-(2,2-difluoro-5H-[1,3]dioxolo[4′,5′:4,5]benzo[1,2-d]imidazol-6-yl)-3-(difluoromethoxy)benzamide], the IC50 in assay [2] was under 200 nM.

In the case of `COc1cncc(C(=O)Nc2nc3cc4c(cc3[nH]2)OC(F)(F)O4)c1` [Compound 123, N-(2,2-difluoro-5H-[1,3]dioxolo[4′,5′:4,5]benzo[1,2-d]imidazol-6-yl)-5-methoxynicotinamide], in assay [2], the half-maximal inhibitory concentration (IC50) was under 200 nM.

Consider `COc1cc(C(=O)Nc2nc3cc4c(cc3[nH]2)OC(F)(F)O4)ccn1` [Compound 124, N-(2,2-difluoro-5H-[1,3]dioxolo[4′,5′:4,5]benzo[1,2-d]imidazol-6-yl)-2-methoxyisonicotinamide], for which the IC50 in assay [2] was under 200 nM.

On to `Nc1ccc(C(=O)Nc2nc3cc4c(cc3[nH]2)OC(F)(F)O4)cc1C(F)(F)F` [Compound 126, 4-amino-N-(2,2-difluoro-5H-[1,3]dioxolo[4′,5′:4,5]benzo[1,2-d]imidazol-6-yl)-3-(trifluoromethyl)benzamide], for which, in assay [2], the IC50 was under 200 nM.

Consider `Nc1ccc(C(=O)Nc2nc3cc4c(cc3[nH]2)OC(F)(F)O4)cc1F` [Compound 127, 4-amino-N-(2,2-difluoro-5H-[1,3]dioxolo[4′,5′:4,5]benzo[1,2-d]imidazol-6-yl)-3-fluorobenzamide], for which, in assay [2], the 50% inhibitory concentration (IC50) lay within 200 to 1000 nM.

On to `O=C(Nc1nc2cc3c(cc2[nH]1)OC(F)(F)O3)c1cccc(N2CCCCC2)c1` [Compound 128, N-(2,2-difluoro-5H-[1,3]dioxolo[4′,5′:4,5]benzo[1,2-d]imidazol-6-yl)-3-(piperidin-1-yl)benzamide], for which, in assay [2], the IC50 is under 200 nM.

In the case of `CC(C)c1nc(-c2cccc(C(=O)Nc3nc4cc5c(cc4[nH]3)OC(F)(F)O5)c2)no1` [Compound 131, N-(2,2-difluoro-5H-[1,3]dioxolo[4′,5′:4,5]benzo[1,2-d]imidazol-6-yl)-3-(5-isopropyl-1,2,4-oxadiazol-3-yl)benzamide], in assay [2], the concentration for half-maximal inhibition (IC50) was under 200 nM.

For `CC(C)(C)c1nc(-c2cccc(C(=O)Nc3nc4cc5c(cc4[nH]3)OC(F)(F)O5)c2)no1` [Compound 132, 3-(5-(tert-butyl)-1,2,4-oxadiazol-3-yl)-N-(2,2-difluoro-5H-[1,3]dioxolo[4′,5′:4,5]benzo[1,2-d]imidazol-6-yl)benzamide], in assay [2], the half-maximal inhibitory concentration (IC50) was under 200 nM.

`CCOC(=O)c1cc(C)n(-c2cccc(C(=O)Nc3nc4cc5c(cc4[nH]3)OC(F)(F)O5)c2)c1C` [Compound 139, ethyl 1-(3-((2,2-difluoro-5H-[1,3]dioxolo[4′,5′:4,5]benzo[1,2-d]imidazol-6-yl)carbamoyl)phenyl)-2,5-dimethyl-1H-pyrrole-3-carboxylate]: the 50% inhibitory concentration (IC50) in assay [2] is under 200 nM.

For `Cc1cc(C(=O)Nc2nc3cc4c(cc3[nH]2)OC(F)(F)O4)no1` [Compound 145, N-(2,2-difluoro-5H-[1,3]dioxolo[4′,5′:4,5]benzo[1,2-d]imidazol-6-yl)-5-methylisoxazole-3-carboxamide], the IC50 in assay [2] is over 1000 nM.

`Cc1cc(C(=O)Nc2nc3cc4c(cc3[nH]2)OC(F)(F)O4)nn1C` [Compound 146, N-(2,2-difluoro-5H-[1,3]dioxolo[4′,5′:4,5]benzo[1,2-d]imidazol-6-yl)-1,5-dimethyl-1H-pyrazole-3-carboxamide]: the concentration for half-maximal inhibition (IC50) in assay [2] was over 1000 nM.

For the origin of these results see patent US20170240556A1, “BIFLUORODIOXALANE-AMINO-BENZIMIDAZOLE KINASE INHIBITORS FOR THE TREATMENT OF CANCER, AUTOIMMUNEINFLAMMATION AND CNS DISORDERS” (4SC DISCOVERY GMBH, priority 2012, published 2017).
